# ChEMBL document CHEMBL5385848, “Discovery of novel hydroxyamidine based indoleamine 2,3-dioxygenase 1 (IDO1) and thioredoxin reductase 1 (TrxR1) dual inhibitors” (Eur J Med Chem, 2023)
# pIC50: −log10 of the molar value. The source made the active and inactive calls. The calls are words filed in the database; no cut-off is given here.
# How the values were obtained:
# [1] = test system: HeLa; assay: Cytotoxicity against human HeLa cells transfected with IDO1 siRNA incubated for 24 hrs by CCK-8 assay (reference value: 9.74 +/- 1.64 uM); type: functional, cell-based
# [2] = test system: HCT-116; assay: Induction of ROS generation in human HCT-116 cells at 10 uM incubated for 4 hrs by DCFH-DA staining based flow cytometry analysis; type: functional, cell-based
# [3] = test system: HeLa; assay: Induction of ROS generation in human HeLa cells at 10 uM incubated for 4 hrs by DCFH-DA staining based flow cytometry analysis; type: functional, cell-based
# [4] = target: Indoleamine 2,3-dioxygenase 1 (Mus musculus) (UniProt P28776); assay: In vivo inhibition of IDO1 in BALB/c mouse implanted with mouse CT-26 cells assessed as reduction in tumor Kyn level at 60 mg/kg, po administered once daily by LC-MS/MS analysis; type: functional, organism-based
# Indoleamine 2,3-dioxygenase 1 (Mus musculus), sequence (P28776 whole entry, looked up): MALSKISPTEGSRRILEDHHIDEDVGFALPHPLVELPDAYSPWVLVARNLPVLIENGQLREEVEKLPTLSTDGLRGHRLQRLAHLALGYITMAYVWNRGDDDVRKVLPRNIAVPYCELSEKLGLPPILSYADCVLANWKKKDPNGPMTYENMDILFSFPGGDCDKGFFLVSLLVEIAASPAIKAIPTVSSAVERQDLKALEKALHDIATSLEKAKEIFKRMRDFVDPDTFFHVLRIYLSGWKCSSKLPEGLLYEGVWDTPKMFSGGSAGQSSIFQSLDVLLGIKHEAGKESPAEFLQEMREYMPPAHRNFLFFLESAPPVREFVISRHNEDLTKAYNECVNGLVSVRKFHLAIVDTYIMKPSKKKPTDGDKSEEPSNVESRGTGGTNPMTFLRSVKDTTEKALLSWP
# [5] = test system: HCT-116; assay: Cytotoxicity against human HCT-116 cells transfected with TrxR1 siRNA incubated for 24 hrs by CCK-8 assay (reference value: 3.49 +/- 0.28 uM); type: functional, cell-based; settings: HCT-116, 24 h
structure (smiles),measurement,setting,value
O=C(Cc1ccc(O)cc1)Nc1nnc(CCCNc2nonc2/C(=N\O)Nc2ccc(F)c(Br)c2)s1,pIC50,[1],5.00
same,Activity,[2],Active
same,Activity,[3],Active
same,Activity,[4],Active
same,pIC50,[5],5.78
